Source: patent US20250000805A1, “VALBENAZINE COMPOSITIONS” (Neurocrine Biosciences, Inc., priority 2021, published 2025)

Assay: Stability of dissolution standards and dissolution samples at ambient lab conditions
Assay type: physicochemical
Procedure: 40.5±4.0 mg of valbenazine ditosylate reference standard (equivalent to 22.22 mg of valbenazine free base) was added to a 250-mL volumetric flask. Diluent (0.1 N HCl dissolution media) was added to the flask, up to about 75% of the volume of the flask. The contents of the flask were mixed well, and sonicated if necessary, to provide a standard solution containing 0.0889 mg/mL valbenazine free base. The standard was stable for 17 days, stored at ambient lab conditions.
10.12±1.0 mg of valbenazine ditosylate reference standard (equivalent to 5.55 mg of valbenazine free base) was added to a 250-mL volumetric flask. Diluent (0.1N HCl dissolution media) was added to the flask, up to about 75% of the volume of the flask. […]
(§1) Dissolution was measured according to Table 8, above. After completion of the dissolution, the end temperature and observations for each vessel were recorded. […]
as §1
(§2) Dissolution was measured according to Table 9, above. After completion of the dissolution, the end temperature and observations for each vessel were recorded. […]
as §2

SMILES: COc1cc2c(cc1OC)[C@H]1C[C@@H](OC(=O)[C@@H](N)C(C)C)[C@H](CC(C)C)CN1CC2.Cc1ccc(S(=O)(=O)O)cc1.Cc1ccc(S(=O)(=O)O)cc1 [L-Valine, (2R,3R,11bR)-1,3,4,6,7,11b-hexahydro-9,10-dimethoxy-3-(2-methylpropyl)-2H-benzo[a]quinolizin-2-yl ester, 4-methylbenzenesulfonate (1:2)]
- time the dissolution standard was stable (0.0222 mg/mL valbenazine free base in 0.1N HCl): 7 days
- time the dissolution standard was stable (0.0889 mg/mL valbenazine free base in 0.1 N HCl): 17 days
